Experimental data as given in patent publication US11643405B2, “Compound for treatment or prevention of liver diseases” (JIANGSU ATOM BIOSCIENCE AND PHARMACEUTICAL CO., LTD., priority 2018, dated 2023).
In brackets after ≈: the same amount, converted by molar mass. Marks after values point to notes of the source that are not given here.

How the values were obtained:
[1] = tested on: zebrafish non-alcoholic fatty liver; test: Fat reduction or elimination effect on thioacetamide-induced zebrafish non-alcoholic fatty liver (Oil Red O staining); assay type: in vivo; conditions: for The total optical density of liver fat: mean ± SE, n = 10
Protocol: 40 mM stock solution of test compounds 4, 5, 6, 7, 46, 67, 78, 85, 92 and 101 were prepared with DMSO, and stored in a refrigerator at −20° C. The positive control compound S-adenosylmethionine (SAM) was purchased from Aladdin Reagent (Shanghai) Co., Ltd., with the batch number F1523051, which was prepared into a 50 mM stock solution with DMSO. The control compound silymarin was purchased from Shanghai Dibai Biotechnology Co., Ltd., with the batch number EE09, which was prepared into a 40 mM stock solution with DMSO. Thioacetamide was purchased from Sigma-Aldrich, with the batch number BCBV3031, which wasprepared into a 1 M stock solution with DMSO. Oil Red O was purchased from Sigma-Aldrich, with the batch number SLBP5248V. 4% paraformaldehyde was purchased from Dingguo Biotechnology Co., Ltd., with the batch number 773001800. Propylene glycol was purchased from Sinopharm Chemical Reagent Co., Ltd., with the batch number 20170615.
The melanin allele mutant translucent Albino line zebrafish was reproduced in natural paired mating. The fish age was 3 days after fertilization, with 30 fish per experimental group.
The above zebrafish were raised in fish farming water at 28° C. (water quality: 200 mg instant sea salt was added to 1 L of reverse osmosis water, conductivity was 480-510 μS/cm; pH was 6.9-7.2; hardness was 53.7-71.6 mg/L CaCOs), the experimental animal use license number was: SYXK (Zhejiang) 2012-0171. Feeding management met the requirements of international AAALAC certification.
Three days after fertilization, the normal melanin allele mutant translucent Albino strain of zebrafish was randomly selected and placed in a six well plate with 30 fish per well (i.e. each experimental group), and then thioacetamide with the final concentration of 7 mM was used to treat zebrafish for 72 hours to establish the non-alcoholic fatty liver model.
The zebrafish were transferred to a six-well plate, with 30 fish per well (i.e., each experimental group) randomly. Non-alcoholic fatty liver model in zebrafish were induced by thioacetamide. 40 mM test compounds 4, 5, 6, 7, 46, 67, 78, 85, 92 and 101 were quantitatively transferred to a six-well plate, and diluted with water to the corresponding concentration. Test compounds 4, 5, 6 and 7 were formulated into two dose groups with final concentration of 100 μM and 200 μM, respectively; test compound 46 was formulated into a dose group with final concentration of 200 μM; test compounds 67, 78, 85, 92 and 101 were formulated into dose groups with a final concentration of 100 μM; 50 mM positive control SAM was formulated with water to a dose group with final concentration of 50 μM, and a 40 mM positive control silymarin was formulated with water to two concentration dose groups with final concentration of 100 μM and 200 μM. A normal control group (zebrafish treated with fish farming water) and a model control group were set at the same time, and the total volume of each well was 3 mL. Except for the normal control group, the other experimental groups were treated with thioacetamide for 72 hours and stained with Oil Red O. After staining, 10 zebrafish were randomly selected from each experimental group and photographed under a dissecting microscope, NIS-Elements D 3.10 advanced image processing software was used to perform image analysis and collect data, the total optical density (S) of zebrafish liver fat was statistically analyzed, and for the inhibitory effect of each experimental group on liver steatosis of zebrafishwas evaluated by the following formula, the results of statistical analysis were expressed as mean±SE: Inhibition rate of liver steatosis (%)=[S(model control group)−S(test compound group)]/[S(model control group)−S(normal control group)]×100%
Statistical analysis was performed using analysis of variance and Dunnett's T-test, and p<0.05 indicated a significant difference. […]

NASH mice = test: Efficacy on non-alcoholic steatohepatitis (NASH) mice fed high-fat feed; assay type: in vivo, C57BL/6 mice; conditions: for Liver coefficient (liver weight/body weight) / Liver weight: 28 days; for Liver weight: X ± SD
Protocol: The test compounds were 4 and 7, respectively; the positive control silymarin was purchased from Shanghai Dibai Biotechnology Co., Ltd., with the batch number HH06.
Low-dose group (35 mg/kg) solution preparation: the quantitative test compound was precisely weighed and a certain amount of normal saline was added to prepare the oral suspension solution with the concentration of 3.5 mg/mL. The administration volume was 10 mL/kg.
High-dose group (70 mg/kg) solution preparation: the quantitative test compound was precisely weighed and a certain amount of normal saline was added to prepare the oral suspension solution with the concentration of 7.0 mg/mL. The administration volume was 10 mL/kg.
High-fat feed: basic feed ingredients were corn, flour, imported fish meal, soybean meal, secondary meal, yeast meal, soybean oil, etc. The high-fat feed was prepared from 73.6% basic feed with 10% lard, 10% egg yolk powder, 5% sucrose, 1.2% cholesterol and 0.2% pig bile salt.
Source, species, strain: C57BL/6 mice, provided by Beijing Vital River Laboratory Animal Technology Co., Ltd. Nanjing Branch (experimental animal production license: SCXK (Su) 2016-0003); experimental animal use license: SYXK (Jun) 2012-0049; age: 6-8 weeks at the beginning of dosing; weight: 18-22 g; gender: half male and half female.
After 3 days of adaptive feeding with normal feed, the mice were randomly assigned according to body weight: 8 mice were fed with normal feed and set as normal control (NC); the rest of mice were fed with high-fat feed until the end of the experiment. The mice were weighed and recorded every 3 days. After feeding with high-fat diet for 56 days (8 weeks), blood samples were collected from the orbital vein of mice to detect the blood biochemical indexes to identify whether the modelling was successful.
After successful modeling, the mice in the high-fat feed group were randomly divided into 6 groups with 8 animals in each group, including model group, compound 4 low dose group, compound 4 high dose group, compound 7 low dose group, compound 7 high dose group and silymarin high-dose group. The mice in each group were administered intragastrically according to the animal's body weight every day for 28 consecutive days (4 weeks). At the same time, during the administration period, the mice in each administration group and model group continued to be fed with high-fat feed until the end of the experiment. The normal control group was administered the corresponding volume of normal saline.
On the last day of the experiment, the mice in each group were fasted for 8 hours, blood was taken from the orbit and the serum was separated and then stored at −20° C. After blood collection, the mice were sacrificed and the liver was quickly separated, weighed and stored in a refrigerator at −80° C. Serum samples and liver tissue samples were subjected to determinations of serum triglyceride (TG), serum total cholesterol (TC), serum high-density lipoprotein (HDL-C), serum low-density lipoprotein (LDL-C), serum alanine aminotransferase (ALT), serum aspartate aminotransferase (AST), serum tumor necrosis factor alpha (TNFα), liver triglycerides (TG), liver total cholesterol (TC), liver malondialdehyde (MDA), liver superoxide dismutase (SOD); in addition, some livers of mice in the blank control group, model group, compound 7 low-dose group and silymarin high-dose group were fixed in neutral formaldehyde fixed solution and then HE staining was performed to analyzed the pathological changes of liver tissue.

[2] = Determination of compound solubility in PBS buffer (LC-MS/MS); assay type: physicochemical; conditions: for solubility at 2 h: 25 °C, kinetic from dmso stock; for Solubility in PBS buffer solution compared with silymarin (in words): pH 4
Protocol: The test compounds were 7, 67 and 85, respectively; the control compound was silymarin, purchased from Shanghai Dibai Biotechnology Co., Ltd., with the batch number HH06. Both the test compounds and the control compound were prepared into 10 mM stock solutions using DMSO. Phosphate buffered saline (PBS), with pH of 4.0 and 7.4, was used to test the solubility of the test compounds.
Treatment of test compound and control compound: 30 μL of test compound or control compound stock solution (10 mM) per well was added in a specially made solubility sample plate, and then 970 μL of PBS with different pH was added to each well (pH was 4.0 and 7.4, respectively). Repeated wells were set in the test. A stir bar was added to each well that was covered with a polytetrafluoroethylene or silica gel plug. Stirring was performed at 25° C. at 1100 rpm for 2 hours. 10 μL of sample was taken from each well, and then 990 μL of water and acetonitrile mixture (including internal standard substance) was added to mix well, followed by filtering with a filter plate.
Standard treatment: 10 mM stock solution was diluted with DMSO to 300 μM, then 10 μL of compound diluent was taken, and 990 μL of water and acetonitrile mixture (including internal standard substance) was added to mix well and formulated into a standard solution with the final concentration 3 μM.
The solubility sample plate was placed in the autosampler and the LC-MS/MS method was used for analysis. The concentration of the test compound was calculated by the response value of the test compound and standard, and the concentration of the standard.

[3] = tested on: adults with nonalcoholic steatohepatitis (NASH) and fibrosis stages F2-F3; conditions: phase II clinical results; cited from earlier work
[4] = tested on: Patients With Primary Biliary Cirrhosis; conditions: phase III study; cited from earlier work
[5] = Danio rerio, 100 μM, read-out: Inhibition rate of liver steatosis

## COc1cc(C2Oc3cc(C4Oc5cc(O)cc(O)c5C(O)C4O)cc(O)c3OC2CO)ccc1O (stereo not shown) [Compound 4, 2-{8-hydroxy-3-(4-hydroxy-3-methoxyphenyl)-2-hydroxymethyl-2,3-dihydrobenzo[b][1,4]dioxan-6-yl}chroman-3,4,5,7-tetraol]
[1]; 100 μM
  Therapeutic effect on non-alcoholic fatty liver of zebrafish (in words): significant therapeutic effects
  The total optical density of liver fat: 18598 ± 608 Pixels
[1]; 200 μM
  Therapeutic effect on zebrafish non-alcoholic fatty liver (in words): significant therapeutic effect
  The total optical density of liver fat: 17802 ± 487 Pixels
[1]; [5]
  inhibition at 100 µM: 83%
[1]; Danio rerio, 200 μM, read-out: Inhibition rate of liver steatosis
  inhibition at 200 µM: 99%
NASH mice; 35 mg/kg/day
  TG: 1.21 ± 0.05 mmol/L
NASH mice; 35 mg/kg/day intragastric
  Liver coefficient (liver weight/body weight): 4.43 ± 0.31 %
  Liver weight: 1.39 ± 0.03 g
NASH mice; 70 mg/kg/day
  TG: 1.18 ± 0.06 mmol/L
NASH mice; 70 mg/kg/day intragastric
  Liver coefficient (liver weight/body weight): 4.54 ± 0.33 %
  Liver weight: 1.43 ± 0.03 g
NASH mice; 35 and 70 mg/kg
  Therapeutic effect on non-alcoholic steatohepatitis in mice (in words): significant therapeutic effects
NASH mice; liver, 35 mg/kg/day
  MDA: 2.91 ± 0.42 nmol/mg
  SOD: 18.08 ± 3.90 U/mg
  TC: 1.51 ± 0.06 mmol/L
NASH mice; liver, 70 mg/kg/day
  MDA: 2.80 ± 0.21 nmol/mg
  SOD: 17.42 ± 4.16 U/mg
  TC: 1.51 ± 0.11 mmol/L
NASH mice; serum, 35 mg/kg/day
  ALT: 89.08 ± 18.93 U/L
  AST: 140.13 ± 13.93 U/L
  HDL-C: 0.95 ± 0.33 mmol/L
  LDL-C: 2.55 ± 0.50 mmol/L
  TC: 2.59 ± 0.32 mmol/L
  TG: 1.18 ± 0.02 mmol/L
  TNF-α: 414.20 ± 13.46 ng/L
NASH mice; serum, 70 mg/kg/day
  ALT: 98.29 ± 75.07 U/L
  AST: 120.04 ± 12.55 U/L
  HDL-C: 0.97 ± 0.37 mmol/L
  LDL-C: 2.13 ± 0.54 mmol/L
  TC: 2.58 ± 0.30 mmol/L
  TG: 1.24 ± 0.16 mmol/L
  TNF-α: 415.80 ± 13.54 ng/L

## COc1cc(O)c2c(c1)OC(c1cc(O)c3c(c1)OC(c1ccc(O)c(OC)c1)C(CO)O3)C(O)C2 (stereo not shown) [Compound 67, 2-{8-hydroxy-3-(4-hydroxy-3-methoxyphenyl)-2-hydroxymethyl-2,3-dihydrobenzo[b][1,4]dioxan-6-yl}-7-methoxychroman-3,5-diol]
[2]; pH 4, aqueous buffer
  solubility at 2 h: 148 µM (≈ 73.9 µg/mL)
[2]; pH 7.4, aqueous buffer
  solubility at 2 h: 146 µM (≈ 72.9 µg/mL)
[2]
  Solubility in PBS buffer solution compared with silymarin (in words): significantly higher than that of silymarin
[1]; 100 μM
  Inhibition rate of liver steatosis: >100*** %
  Therapeutic effect on non-alcoholic fatty liver of zebrafish (in words): significant therapeutic effects
  The total optical density of liver fat: 16667 ± 469 Pixels
[1]; [5]
  inhibition at 100 µM: > 100%

## COc1cc(C2Oc3cc(C4Oc5cc(O)cc(OC)c5CC4O)cc(O)c3OC2CO)ccc1O (stereo not shown) [Compound 85, 2-{8-hydroxy-3-(4-hydroxy-3-methoxyphenyl)-2-hydroxymethyl-2,3-dihydrobenzo[b][1,4]dioxan-6-yl}-5-methoxychroman-3,7-diol]
[2]; pH 4, aqueous buffer
  solubility at 2 h: 160 µM (≈ 79.7 µg/mL)
[2]; pH 7.4, aqueous buffer
  solubility at 2 h: 150 µM (≈ 75 µg/mL)
[2]
  Solubility in PBS buffer solution compared with silymarin (in words): significantly higher than that of silymarin
[1]; 100 μM
  Inhibition rate of liver steatosis: >100*** %
  Therapeutic effect on non-alcoholic fatty liver of zebrafish (in words): significant therapeutic effects
  The total optical density of liver fat: 17378 ± 710 Pixels
[1]; [5]
  inhibition at 100 µM: > 100%

## Cc1cc(F)c(C(=O)Nc2cccc(-c3nncn3C(C)C)n2)cc1-n1cnc(C2CC2)c1 [GS-4997]
[3]
  subjects with improved fibrosis after treatment: 43%

## CC[C@H]1[C@@H](O)[C@@H]2[C@H](CC[C@]3(C)[C@@H]([C@H](C)CCC(=O)O)CC[C@@H]23)[C@@]2(C)CC[C@@H](O)C[C@@H]12 [Obeticholic acid]
[4]
  patients with serious cardiovascular adverse events: 3%
